Measured values as given in US20120214862A1, “MODULATION OF FACTOR 7 EXPRESSION” (ISIS Pharmaceuticals, Inc., priority 2009, published 2012).
e = 2'-O-(2-methoxyethyl) (MOE); d = 2'-deoxy (DNA)

Key:
[1] = tested on: murine Factor 7 mRNA; assay: Liver Factor 7 mRNA by real-time RT-PCR in treated BALB/c mice; format: in vivo, mouse; settings: for % inhibition of murine Factor 7 mRNA: BALB/c liver; for % inhibition of murine Factor 7 mRNA / % inhibition of Factor 7 mRNA: relative to PBS control; for % inhibition of Factor 7 mRNA: liver; for % inhibition of Factor 7 mRNA (liver): mice
Protocol: A control group of mice was injected subcutaneously with PBS twice a week for 3 weeks. After the treatment period, whole liver was collected for RNA and protein analysis, and plasma was collected for clotting analysis (PT/aPTT).
(§1) RNA was extracted from liver tissue for real-time RT-PCR analysis of Factor 7.
A control group of 3 mice was injected with a single dose of PBS, and mice in this group were sacrificed on day 1. Mice in all groups were sacrificed by cervical dislocation following anesthesia with 150 mg/kg ketamine mixed with 10 mg/kg xylazine administered by intraperitoneal injection. Liver was harvested for RNA analysis and plasma was collected for clotting analysis (PT and aPTT).
as §1
Mice from the first group were sacrificed on days 1 and 3 after the single dose. […] A control group of 3 mice was injected with PBS in a single dose. Mice from the control group were sacrificed 1 day later. Mice in all groups were sacrificed by cervical dislocation following anesthesia with 150 mg/kg ketamine mixed with 10 mg/kg xylazine administered by intraperitoneal injection. Liver was harvested for RNA analysis and plasma was collected for clotting analysis (PT and aPTT) for mice in all groups.
RNA was extracted from liver tissue for quantitative RT-PCR analysis of Factor 7.
Two control groups of BALB/c mice were treated with PBS, administered subcutaneously twice a week for 3 weeks. Thrombus formation was induced with FeCl3 in half of the mice while the rest of the mice were assayed for tail bleeding. […] Thrombus formation was induced with FeCl3 in all groups of the VT mice except the first control group.
as §1
A fifth group of BALB/c mice was treated with 3 mg/kg of warfarin, administered intraperioneally daily for 6 days. Four hours after the last dose of warfarin, mice were sacrificed. A control group of BALB/c mice were treated with PBS, administered subcutaneously twice a week for 3 weeks. Two days after the last dose of PBS, mice were anesthetized with 150 mg/kg ketamine mixed with 10 mg/kg xylazine administered by intraperitoneal injection. Thrombus formation was induced with FeCl3 in groups of mice except the first control group.

[2] = tested on: extrinsic pathway of blood coagulation; assay: Prothrombin Time (PT) in platelet poor plasma of treated mice, reported as INR; format: in vivo, mouse
Protocol: (§2) Prothrombin Time (PT) and Activated Partial Thromboplastin Time (aPTT) were measured using platelet poor plasma (PPP) from mice treated with ISIS 403102. PT and aPTT values provided in Table 20 are reported as International Normalized Ratio (INR) values. INR values for PT and aPTT were determined by dividing the PT or aPTT value for the experimental group by the PT or aPTT for the PBS treated group. This ratio was then raised to the power of the International Sensitivity Index (ISI) of the tissue factor used.
as §2, with “in Table 22 are reported” for “in Table 20 are reported”, “experimental group (i.e. 50 mg/kg treatment with ISIS 403102) by the” for “experimental group by the”
as §2, with “in Table 24 are reported” for “in Table 20 are reported”, “experimental group (i.e. 50 mg/kg treatment with ISIS 403102) by the” for “experimental group by the”

[3] = BALB/c mice, single dose 50 mg/kg, day 1
[4] = BALB/c mice, single dose 50 mg/kg, day 2
[5] = BALB/c mice, single dose 50 mg/kg, day 3
[6] = BALB/c mice, single dose 50 mg/kg, day 4
[7] = BALB/c mice, single dose 50 mg/kg, day 6
[8] = BALB/c mice, single dose 50 mg/kg, day 8
[9] = BALB/c mice, single dose 50 mg/kg, day 12
[10] = BALB/c mice, single dose 50 mg/kg, day 24
[11] = BALB/c mice, single dose 50 mg/kg, day 56
[12] = single dose 50 mg/kg, BALB/c mice

CCATAGAACAGCTTCACAGG (sugars from the 5' end e5 d10 e5, backbone and methylation of C not given here) [ISIS 403102]
% inhibition of murine Factor 7 mRNA ([1]; 5 mg/kg sc twice a week for 3 weeks): 64% | % inhibition of murine Factor 7 mRNA ([1]; 10 mg/kg sc twice a week for 3 weeks): 84% | % inhibition of murine Factor 7 mRNA ([1]; 25 mg/kg sc twice a week for 3 weeks): 96% | % inhibition of murine Factor 7 mRNA ([1]; 50 mg/kg sc twice a week for 3 weeks): 99% | reduction of murine Factor 7 (liver mRNA) over PBS control ([1]; 5-50 mg/kg sc twice a week for 3 weeks, BALB/c mice): dose-dependent reduction | % Inhibition of murine Factor 7 mRNA (liver) [1, 3]: 61% | % Inhibition of murine Factor 7 mRNA (liver) [1, 4]: 87% | % Inhibition of murine Factor 7 mRNA (liver) [1, 5]: 92% | % Inhibition of murine Factor 7 mRNA (liver) [1, 6]: 92% | % Inhibition of murine Factor 7 mRNA (liver) [1, 7]: 86% | % Inhibition of murine Factor 7 mRNA (liver) [1, 8]: 80% | % Inhibition of murine Factor 7 mRNA (liver) [1, 9]: 72% | % Inhibition of murine Factor 7 mRNA (liver) [1, 10]: 11% | % Inhibition of murine Factor 7 mRNA (liver) [1, 11]: 0% | Factor 7 inhibition over time ([1]; Example 13, 6 doses of 25 mg/kg sc, days 14, 28, 42 and 56 after last dose): declined progressively | inhibition of Factor 7 mRNA, onset ([1]; Example 13, single dose 25 mg/kg sc): inhibition of Factor 7 as early as day 1 | reduction of Factor 7 mRNA in comparison to the PBS control ([1]; Example 14, 25, 37.5 or 50 mg/kg sc twice a week for 3 weeks, FeCl3 VT model): significant dose-dependent reduction | reduction of Factor 7 mRNA in comparison to the PBS control ([1]; Example 15, 5-40 mg/kg sc twice a week for 3 weeks): significant dose-dependent reduction | % inhibition of Factor 7 mRNA ([1]; BALB/c mice, FeCl3 VT model (Example 15), 5 mg/kg s.c. twice a week for 3 weeks): 59% | % inhibition of Factor 7 mRNA ([1]; BALB/c mice, FeCl3 VT model (Example 15), 10 mg/kg s.c. twice a week for 3 weeks): 84% | % inhibition of Factor 7 mRNA ([1]; BALB/c mice, FeCl3 VT model (Example 15), 20 mg/kg s.c. twice a week for 3 weeks): 95% | % inhibition of Factor 7 mRNA ([1]; BALB/c mice, FeCl3 VT model (Example 15), 40 mg/kg s.c. twice a week for 3 weeks): 99% | % inhibition of Factor 7 mRNA ([1]; BALB/c mice, FeCl3 VT model, 25 mg/kg s.c. twice a week for 3 weeks): 24% | % inhibition of Factor 7 mRNA ([1]; BALB/c mice, FeCl3 VT model, 37.5 mg/kg s.c. twice a week for 3 weeks): 74% | % inhibition of Factor 7 mRNA ([1]; BALB/c mice, FeCl3 VT model, 50 mg/kg s.c. twice a week for 3 weeks): 69% | % inhibition of Factor 7 mRNA (liver) ([1]; 25 mg/kg s.c. twice a week, 2 doses, 3 days after last dose): 86% | % inhibition of Factor 7 mRNA (liver) ([1]; 25 mg/kg s.c. twice a week, 4 doses, 3 days after last dose): 91% | % inhibition of Factor 7 mRNA (liver) ([1]; 25 mg/kg s.c. twice a week, 6 doses, 2 days after last dose): 83% | % inhibition of Factor 7 mRNA (liver) ([1]; 25 mg/kg s.c. twice a week, 6 doses, 7 days after last dose): 88% | % inhibition of Factor 7 mRNA (liver) ([1]; 25 mg/kg s.c. twice a week, 6 doses, 14 days after last dose): 64% | % inhibition of Factor 7 mRNA (liver) ([1]; 25 mg/kg s.c. twice a week, 6 doses, 28 days after last dose): 33% | % inhibition of Factor 7 mRNA (liver) ([1]; 25 mg/kg s.c. twice a week, 6 doses, 42 days after last dose): 5% | % inhibition of Factor 7 mRNA (liver) ([1]; 25 mg/kg s.c. twice a week, 6 doses, 56 days after last dose): 11% | % inhibition of Factor 7 mRNA (liver) ([1]; 25 mg/kg s.c., 1 dose, 1 day after last dose): 44% | % inhibition of Factor 7 mRNA (liver) ([1]; 25 mg/kg s.c., 1 dose, 3 days after last dose): 74% | duration of action [1, 12]: at least 24 days | peak effect of a single dose occurs on [1, 12]: ~4 days | inhibition of Factor 7 mRNA ([1]; single dose 50 mg/kg, day 4): 92% | inhibition of Factor 7 mRNA ([1]; single dose 50 mg/kg, day 24): 11% | Factor 7 mRNA levels ([1]; single dose 50 mg/kg, day 56): equal to that of the PBS control | PT INR ([2]; BALB/c mice, 5 mg/kg s.c. twice a week for 3 weeks): 1.09 | PT INR ([2]; BALB/c mice, 10 mg/kg s.c. twice a week for 3 weeks): 1.33 | PT INR ([2]; BALB/c mice, 25 mg/kg s.c. twice a week for 3 weeks): 2.33 | PT INR ([2]; BALB/c mice, 50 mg/kg s.c. twice a week for 3 weeks): 4.37 | PT INR ([2]; BALB/c mice, 50 mg/kg, 1 dose, 1 day after last dose): 1.04 | PT INR ([2]; BALB/c mice, 50 mg/kg, 1 dose, 3 days after last dose): 1.20 | PT INR ([2]; BALB/c mice, 50 mg/kg, 2 doses, 3 days after last dose): 1.43 | PT INR ([2]; BALB/c mice, 50 mg/kg, 4 doses, 3 days after last dose): 2.13 | PT INR ([2]; BALB/c mice, 50 mg/kg, 6 doses, 2 days after last dose): 1.64 | PT INR ([2]; BALB/c mice, 50 mg/kg, 6 doses, 7 days after last dose): 2.08 | PT INR ([2]; BALB/c mice, 50 mg/kg, 6 doses, 14 days after last dose): 1.37 | PT INR ([2]; BALB/c mice, 50 mg/kg, 6 doses, 28 days after last dose): 0.96 | PT INR ([2]; BALB/c mice, 50 mg/kg, 6 doses, 42 days after last dose): 1.00 | PT INR ([2]; BALB/c mice, 50 mg/kg, 6 doses, 56 days after last dose): 0.99 | PT INR [2, 3]: 1.11 | PT INR [2, 4]: 1.64 | PT INR [2, 5]: 1.81 | PT INR [2, 6]: 1.97 | PT INR [2, 7]: 1.59 | PT INR [2, 8]: 1.55 | PT INR [2, 9]: 1.30 | PT INR [2, 10]: 1.12 | PT INR [2, 11]: 1.10 | PT compared to the control ([2]; Example 11, 5-50 mg/kg sc twice a week for 3 weeks): significantly prolonged | PT over time ([2]; Example 13, 6 doses, day 7 to day 56): PT decreased | PT INR ([2]; single dose 50 mg/kg, day 1): 1.11 INR | PT INR ([2]; single dose 50 mg/kg, day 4): 1.97 INR | PT INR ([2]; single dose 50 mg/kg, day 56): 1.10 INR
